system: Amaranthus retoflexus (AMARE); test: Herbicidal glasshouse test, pre-emergence, AMARE; assay type: in vivo; settings: applied at 250 g/ha, evaluated after 13 days
In short: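 This pre-emergence glasshouse herbicide test used Amaranthus retoflexus sown in standard soil. After one day of cultivation, an aqueous spray made from the technical ingredient in 50:50 acetone/water with 0.5% Tween 20 was applied. Pots stayed at 24/16° C., 14 hours light, 65% humidity, with twice-daily watering. Damage was rated on a five point scale (1=0-19% up to 5=80-100%).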

| SMILES | PRE Application AMARE, percentage damage (five point scale) |
| --- | --- |
| C=C(C)Cn1c(=O)c(C(=O)Nc2nnnn2C)nn(C)c1=O [Compound 1.091] | 5 (5=80-100%) |

same assay, conditions: applied at 1000 g/h, evaluated after 13 days

| SMILES | PRE Application AMARE, percentage damage (five point scale) |
| --- | --- |
| COCCn1c(=O)c(C(=O)Nc2nnnn2C)nn(C)c1=O [Compound 1.088] | 5 (5=80-100%) |

system: Setaria faberi (SETFA); test: Herbicidal glasshouse test, post-emergence, SETFA; assay type: in vivo; settings: applied at 250 g/ha, evaluated after 13 days
In short: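 This post-emergence glasshouse herbicide test used potted Setaria faberi. Plants were cultivated for 8 days under controlled conditions (24/16° C. day/night, 14 hours light, 65% humidity) and then treated with an aqueous spray made from an acetone/water (50:50) solution containing 0.5% Tween 20. After 13 days of further growth with twice-daily watering, damage was rated on a five point scale (5=80-100%; 1=0-19%).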

| SMILES | POST Application SETFA, percentage damage (five point scale) |
| --- | --- |
| C=C(C)Cn1c(=O)c(C(=O)Nc2nnnn2C)nn(C)c1=O [Compound 1.091] | 4 (4=60-79%) |

same assay, conditions: applied at 1000 g/h, evaluated after 13 days

| SMILES | POST Application SETFA, percentage damage (five point scale) |
| --- | --- |
| COCCn1c(=O)c(C(=O)Nc2nnnn2C)nn(C)c1=O [Compound 1.088] | 5 (5=80-100%) |

system: Alopecurus myosuroides (ALOMY); test: Herbicidal glasshouse test, pre-emergence, ALOMY; assay type: in vivo; settings: applied at 250 g/ha, evaluated after 13 days

| SMILES | PRE Application ALOMY, percentage damage (five point scale) |
| --- | --- |
| C=C(C)Cn1c(=O)c(C(=O)Nc2nnnn2C)nn(C)c1=O [Compound 1.091] | 4 (4=60-79%) |

same assay, conditions: applied at 1000 g/h, evaluated after 13 days

| SMILES | PRE Application ALOMY, percentage damage (five point scale) |
| --- | --- |
| COCCn1c(=O)c(C(=O)Nc2nnnn2C)nn(C)c1=O [Compound 1.088] | 5 (5=80-100%) |

system: Ipomoea hederacea (IPOHE); test: Herbicidal glasshouse test, pre-emergence, IPOHE; assay type: in vivo; settings: applied at 250 g/ha, evaluated after 13 days

| SMILES | PRE Application IPOHE, percentage damage (five point scale) |
| --- | --- |
| C=C(C)Cn1c(=O)c(C(=O)Nc2nnnn2C)nn(C)c1=O [Compound 1.091] | 4 (4=60-79%) |

same assay, conditions: applied at 1000 g/h, evaluated after 13 days

| SMILES | PRE Application IPOHE, percentage damage (five point scale) |
| --- | --- |
| COCCn1c(=O)c(C(=O)Nc2nnnn2C)nn(C)c1=O [Compound 1.088] | 5 (5=80-100%) |

system: Echinochloa crus-galli (ECHCG); test: Herbicidal glasshouse test, pre-emergence, ECHCG; assay type: in vivo; settings: applied at 250 g/ha, evaluated after 13 days
In short: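 In this pre-emergence glasshouse test, ECHCG seeds sown in pots of standard soil were sprayed one day after sowing with the test material in acetone/water (50:50) containing 0.5% Tween 20. Plants were kept at 24/16° C., 14 hours light, 65% humidity, and watered twice daily. Percentage damage was rated after 13 days on a 1–5 scale.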

| SMILES | PRE Application ECHCG, percentage damage (five point scale) |
| --- | --- |
| C=C(C)Cn1c(=O)c(C(=O)Nc2nnnn2C)nn(C)c1=O [Compound 1.091] | 5 (5=80-100%) |

same assay, conditions: applied at 1000 g/h, evaluated after 13 days

| SMILES | PRE Application ECHCG, percentage damage (five point scale) |
| --- | --- |
| COCCn1c(=O)c(C(=O)Nc2nnnn2C)nn(C)c1=O [Compound 1.088] | 5 (5=80-100%) |

system: Solanum nigrum (SOLNI); test: Herbicidal glasshouse test, post-emergence, SOLNI; assay type: in vivo; settings: applied at 250 g/ha, evaluated after 13 days

| SMILES | POST Application SOLNI, percentage damage (five point scale) |
| --- | --- |
| C=C(C)Cn1c(=O)c(C(=O)Nc2nnnn2C)nn(C)c1=O [Compound 1.091] | 5 (5=80-100%) |

same assay, conditions: applied at 1000 g/h, evaluated after 13 days

| SMILES | POST Application SOLNI, percentage damage (five point scale) |
| --- | --- |
| COCCn1c(=O)c(C(=O)Nc2nnnn2C)nn(C)c1=O [Compound 1.088] | 5 (5=80-100%) |

system: Setaria faberi (SETFA); test: Herbicidal glasshouse test, pre-emergence, SETFA; assay type: in vivo; settings: applied at 250 g/ha, evaluated after 13 days

| SMILES | PRE Application SETFA, percentage damage (five point scale) |
| --- | --- |
| C=C(C)Cn1c(=O)c(C(=O)Nc2nnnn2C)nn(C)c1=O [Compound 1.091] | 4 (4=60-79%) |

same assay, conditions: applied at 1000 g/h, evaluated after 13 days

| SMILES | PRE Application SETFA, percentage damage (five point scale) |
| --- | --- |
| COCCn1c(=O)c(C(=O)Nc2nnnn2C)nn(C)c1=O [Compound 1.088] | 5 (5=80-100%) |

system: Ipomoea hederacea (IPOHE); test: Herbicidal glasshouse test, post-emergence, IPOHE; assay type: in vivo; settings: applied at 250 g/ha, evaluated after 13 days

| SMILES | POST Application IPOHE, percentage damage (five point scale) |
| --- | --- |
| C=C(C)Cn1c(=O)c(C(=O)Nc2nnnn2C)nn(C)c1=O [Compound 1.091] | 5 (5=80-100%) |

same assay, conditions: applied at 1000 g/h, evaluated after 13 days

| SMILES | POST Application IPOHE, percentage damage (five point scale) |
| --- | --- |
| COCCn1c(=O)c(C(=O)Nc2nnnn2C)nn(C)c1=O [Compound 1.088] | 5 (5=80-100%) |

system: Solanum nigrum (SOLNI); test: Herbicidal glasshouse test, pre-emergence, SOLNI; assay type: in vivo; settings: applied at 250 g/ha, evaluated after 13 days
In short: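 This pre-emergence glasshouse herbicide test used Solanum nigrum sown in standard soil. One day after sowing, pots were sprayed with the compound in acetone/water (50:50) with 0.5% Tween 20. They were then grown at 24/16° C., with 14 hours light and 65% humidity, and watered twice daily. Percentage damage was scored after 13 days on a five point scale, where 5=80-100% and 1=0-19%.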

| SMILES | PRE Application SOLNI, percentage damage (five point scale) |
| --- | --- |
| C=C(C)Cn1c(=O)c(C(=O)Nc2nnnn2C)nn(C)c1=O [Compound 1.091] | 5 (5=80-100%) |

same assay, conditions: applied at 1000 g/h, evaluated after 13 days

| SMILES | PRE Application SOLNI, percentage damage (five point scale) |
| --- | --- |
| COCCn1c(=O)c(C(=O)Nc2nnnn2C)nn(C)c1=O [Compound 1.088] | 5 (5=80-100%) |

system: Echinochloa crus-galli (ECHCG); test: Herbicidal glasshouse test, post-emergence, ECHCG; assay type: in vivo; settings: applied at 250 g/ha, evaluated after 13 days
In short: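 In this post-emergence glasshouse test, barnyard grass (ECHCG) was cultivated for 8 days under controlled conditions (24/16° C. day/night, 14 hours light, 65% humidity). It was then sprayed with an aqueous solution of the technical compound in acetone / water (50:50) with 0.5% Tween 20. Plants were kept under the same conditions and watered twice daily. After 13 days, percentage damage was rated on a five point scale (5=80-100%; 1=0-19%).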

| SMILES | POST Application ECHCG, percentage damage (five point scale) |
| --- | --- |
| C=C(C)Cn1c(=O)c(C(=O)Nc2nnnn2C)nn(C)c1=O [Compound 1.091] | 5 (5=80-100%) |

same assay, conditions: applied at 1000 g/h, evaluated after 13 days

| SMILES | POST Application ECHCG, percentage damage (five point scale) |
| --- | --- |
| COCCn1c(=O)c(C(=O)Nc2nnnn2C)nn(C)c1=O [Compound 1.088] | 5 (5=80-100%) |

system: Amaranthus retoflexus (AMARE); test: Herbicidal glasshouse test, post-emergence, AMARE; assay type: in vivo; settings: applied at 250 g/ha, evaluated after 13 days
In short: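 This post-emergence glasshouse test used AMARE plants raised in standard soil for 8 days under controlled conditions (24/16° C. day/night, 14 hours light, 65% humidity). Foliage was sprayed with formulated compound in acetone/water (50:50) containing 0.5% Tween 20. Plants were then watered twice daily, and after 13 days percentage damage was rated on a five point scale.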

| SMILES | POST Application AMARE, percentage damage (five point scale) |
| --- | --- |
| C=C(C)Cn1c(=O)c(C(=O)Nc2nnnn2C)nn(C)c1=O [Compound 1.091] | 5 (5=80-100%) |

same assay, conditions: applied at 1000 g/h, evaluated after 13 days

| SMILES | POST Application AMARE, percentage damage (five point scale) |
| --- | --- |
| COCCn1c(=O)c(C(=O)Nc2nnnn2C)nn(C)c1=O [Compound 1.088] | 5 (5=80-100%) |

system: Alopecurus myosuroides (ALOMY); test: Herbicidal glasshouse test, post-emergence, ALOMY; assay type: in vivo; settings: applied at 250 g/ha, evaluated after 13 days

| SMILES | POST Application ALOMY, percentage damage (five point scale) |
| --- | --- |
| C=C(C)Cn1c(=O)c(C(=O)Nc2nnnn2C)nn(C)c1=O [Compound 1.091] | 4 (4=60-79%) |

same assay, conditions: applied at 1000 g/h, evaluated after 13 days

| SMILES | POST Application ALOMY, percentage damage (five point scale) |
| --- | --- |
| COCCn1c(=O)c(C(=O)Nc2nnnn2C)nn(C)c1=O [Compound 1.088] | 5 (5=80-100%) |

Reference: US20160009693A1, “HERBICIDAL COMPOUNDS” (SYNGENTA LIMITED, priority 2013, published 2016)
